This is an account of results in article PMC9606729 (RSC Advances, 2022).

Read-outs that look alike come from different tables or passages of the source. Bounds are passed on as bounds.

The test system of data set [1] is HeLa cells. As to the kind of experiment: MTT cell viability assay (photocytotoxicity), HeLa. The class given is cell-based, human. To be noted: for PI (Phototoxic Index) HeLa: ratio between IC50 in the dark and visible light exposure. (In general: Tetrazolium dyes change colour on reduction, which living cells bring about.)
Experimental: (§1) The photocytotoxicity of the complexes was assessed using MTT assay based on the ability of mitochondrial dehydrogenases in the viable cells to cleave the tetrazolium rings of MTT and forming dark blue membrane impermeable crystals of formazan that were measured at 570 nm giving an estimate of the number of viable cells.[40] Approximately, 1 × 10^4 cells of HeLa and A549 were plated in a 96-well culture plate in DMEM supplemented with 10% fetal bovine serum and cultured overnight. Different concentrations of the complexes were added to the cells, and incubation was continued for 4 h in dark. After incubation, the medium was replaced with 50 mM phosphate buffer, pH 7.4, containing 150 mM NaCl (PBS) and photo-irradiation was done for 1 h in visible light of 400–700 nm using Luzchem Photoreactor (Model LZC-1, Ontario, Canada; light fluence rate: 2.4 mW cm^−2; light dose = 10 J cm^−2). PBS was replaced with 10% DMEM after irradiation. Incubation was continued for a further period of 19 h in dark for light exposed cells and for 20 h in dark for light unexposed cells followed by addition of 25 μL of 4 mg mL^−1 of MTT to each well and incubated for an additional 3 h. The culture medium was discarded, and a 100 μL volume of DMSO was added to dissolve the formazan crystals. The absorbance at 570 nm was determined using an ELISA microplate reader (BioRad, Hercules, CA, USA). The cytotoxicity of the test compounds was measured as the percentage ratio of the absorbance of the treated cells over the untreated controls. The IC50 values were determined by nonlinear regression analysis (Graphpad Prism, version 7).
Data set [2] relates to HeLa cells. As to the kind of experiment: Annexin-V/FITC/PI assay by flow cytometry. The class given is cell-based, human. The note with it: 5 μM. The protocol:
The mechanism of light-assisted cell death induced by the complexes was studied by annexin-V/FITC/PI assay using complexes 1 and 3 in 1% DMSO/DMEM.[44] ∼4 × 10^5 HeLa cells seeded in six-well plates were cultured for 24 h. The cells were then incubated with 3 (5 μM) for 4 h in the dark and then exposed to visible light (λ = 400–700 nm, light dose = 10 J cm^−2) in phenol red free media for 1 h. The corresponding dark control experiment was carried out. Cells were incubated for another 19 h and 20 h respectively for the light exposed and unexposed plates in DMEM/10% fetal bovine serum (FBS) buffer in the dark. The medium was discarded, cells were trypsinized and re-suspended in 140 μL Annexin V binding buffer (100 mM HEPES/NaOH, pH 7.4 containing 140 mM NaCl and 2.5 mM CaCl2). Annexin-V/FITC ([…]) and propidium iodide (PI; […]) were added to the cell suspensions, incubated for 5 min and readings were taken using a flow cytometer.
A general note: Flow cytometry measures light scatter and fluorescence of single cells or particles in a stream.

In data set [3] the test system is HeLa cells. As to the kind of experiment: DCFDA assay for detection of ROS. Format: cell-based, human. To be noted: 5 μM. The protocol: The generation of cellular reactive oxygen species (ROS) was assessed using DCFDA assay.[43] Approximately ∼1 × 10^6 HeLa cells were incubated with complex 3 (5 μM) for 4 h which is followed by photo-irradiation (400–700 nm) for 1 h in PBS. The cells were then harvested by trypsinization and a single cell suspension in PBS was made. After that the cells were treated with DCFDA solution (10 μM, in DMSO) in dark at room temperature for 5 min. The distribution of DCFDA stained HeLa cells was determined by flow cytometry in the FL-1 channel.

In data set [4] the target is T1, human serum albumin (HSA) (Homo sapiens, UniProt P02768).
T1 construct: purchased Sigma (U.S.A.)
T1 sequence (P02768 25-609): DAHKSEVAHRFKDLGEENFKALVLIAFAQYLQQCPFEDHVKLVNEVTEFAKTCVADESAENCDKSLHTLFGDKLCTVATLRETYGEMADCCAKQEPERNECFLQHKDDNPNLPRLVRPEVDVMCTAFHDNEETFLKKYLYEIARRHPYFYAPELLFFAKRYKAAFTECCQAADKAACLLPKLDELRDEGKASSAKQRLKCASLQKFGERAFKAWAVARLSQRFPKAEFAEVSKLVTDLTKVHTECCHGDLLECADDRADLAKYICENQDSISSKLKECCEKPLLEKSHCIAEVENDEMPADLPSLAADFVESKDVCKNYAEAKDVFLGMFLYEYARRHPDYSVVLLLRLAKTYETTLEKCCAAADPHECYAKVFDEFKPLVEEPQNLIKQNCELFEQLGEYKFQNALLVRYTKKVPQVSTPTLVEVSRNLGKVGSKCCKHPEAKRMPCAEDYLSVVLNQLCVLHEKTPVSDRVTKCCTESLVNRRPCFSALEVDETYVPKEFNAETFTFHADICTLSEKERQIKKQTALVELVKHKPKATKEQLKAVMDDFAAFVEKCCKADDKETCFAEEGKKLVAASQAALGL
Kind of data set: Protein binding by tryptophan fluorescence quenching. The note with it: fluorescence lifetime of HSA with 10 and 20 μM complex. The procedure:
The protein binding study was carried out by tryptophan fluorescence quenching experiments using human serum albumin (HSA, 2 μM) in Tris–HCl buffer (pH 7.2). Quenching of the emission intensity of tryptophan residue (Trp 214) of HSA at 320 nm (excitation wavelength at 280 nm) was monitored using complexes 1–6 as quenchers with increasing concentration.[38]I0/I vs. [complex] plots were constructed. Linear fit of the data using the equation I0/I = 1 + K[Q], where I0 and I are the emission intensity of HSA in the absence of quencher and emission intensity of HSA in the presence of the quencher of concentration [Q] gave the binding constant KHSA values using OriginPro 8. […] Average fluorescence lifetime of pure HSA (2 μM) was measured and compared with its fluorescence lifetime in presence of two different concentrations (10 and 20 μM) of complex 3 using a time-resolved fluorimeter.[39]

Data set [5] can be described thus: Partition coefficient n-octanol/water, modified shake-flask method. The class given is physicochemical. To be noted: average of three concentrations. The protocol: A modified shake-flask method was used to determine the partition coefficients of the complexes 1–6 between n-octanol and water.[41] Briefly, 5 ml solution of a complex in octanol-saturated water was shaken with 5 ml of water-saturated n-octanol in a falcon tube for ∼30 min using a vortex. The biphasic mixture was centrifuged for ∼5 min at 4000 rpm and the layers were separated. The concentration of the complexes 1–6 in each layer was measured by UV-visible spectroscopy. The partition coefficients of 1–6 were determined at three different concentrations and averaged out.

Data set [6] concerns HeLa cells. Kind of data set: Cellular uptake by flow cytometry. To be noted: 10 μM, 4 h in dark, fluorescence vs cells' auto fluorescence. The class given is cell-based, human. The procedure:
Uptake of the complexes 1–3 in HeLa cells were studied by flow cytometric method reported in literature.[42] HeLa cells were treated with 1–3 (10 μM) and incubated for 4 h in dark. The cells were harvested by trypsinization and a suspension in PBS was prepared. The uptake of the green fluorescent complexes in HeLa cells were evaluated by flow cytometry.

The test system of data set [7] is A549 cells. Kind of data set: MTT cell viability assay (photocytotoxicity), A549. Format: cell-based, human. To be noted: for PI (Phototoxic Index) A549: ratio between IC50 in the dark and visible light exposure.
Experimental: as §1
Data set [8] deals with A549 cells. The note with it: curcumin, cited from earlier work.
Data set [9] concerns HeLa cells. The note with it: curcumin, cited from earlier work.
Where [10] appears, read: 4 h treatment followed by 20 h incubation in dark, read-out: IC50 HeLa Dark.
Where [11] appears, read: 4 h treatment in dark, visible light (400–700 nm, 10 J cm^−2) 1 h, then 19 h in dark, read-out: IC50 HeLa Light.
The mark [12] stands for this setting: visible light (400–700 nm, 10 J cm^−2).
Where [13] appears, read: 4 h treatment followed by 20 h incubation in dark, read-out: IC50 A549 Dark.
Where [14] appears, read: 4 h treatment in dark, visible light (400–700 nm, 10 J cm^−2) 1 h, then 19 h in dark, read-out: IC50 A549 Light.

As to `COc1cc(/C=C/C(=O)C=C([O-])/C=C/c2ccc(O)c(OC)c2)ccc1O.[Cu+2].[O-][Cl+3]([O-])([O-])[O-].c1ccc2nc3c4cccnc4c4ncccc4c3nc2c1` [Complex 3, [Cu(Cur)(dppz)(ClO4)]], the IC50 in the data set on HeLa cells [1] (setting [10]) came out at 58.9 ± 3.7 µM; in the data set on HeLa cells [1] (setting [11]), 3.7 ± 0.5 µM; in the data set on A549 cells [7] (setting [13]), 64.9 ± 4.3 µM; with A549 cells [7] (setting [14]), 4.3 ± 0.4 µM. Moreover, the “PI (Phototoxic Index) HeLa” value in the data set with HeLa cells [1] is 15.9. Moreover, the “population of cells in early apoptotic stage” value with HeLa cells [2] (in dark) is given as around 4%; in the data set on HeLa cells [2] (setting [12]) it was around 50%. Moreover, the “population of cells in late apoptotic stage” value is recorded as around 8% in the data set with HeLa cells [2] (in dark) and around 15% in the data set with HeLa cells [2] (setting [12]). Also, the “ROS generation (DCF emission)” value in the data set with HeLa cells [3] (4 h, photo-irradiation (400–700 nm) 1 h) was “significant increase in emission by DCF”; in the data set on HeLa cells [3] (compound treated cells kept in dark), “did not show any significant ROS formation”. In addition, the “HSA fluorescence quenching mechanism” value in [4] is “static in nature”. Besides, in data set [5], the “log Po/w” value was 0.945. Further, the “uptake in HeLa cells” value with HeLa cells [6] was “highest uptake”. The “PI (Phototoxic Index) A549” value in the data set on A549 cells [7] was 15.1.

Consider `CC(=O)C=C(C)[O-].[Cu+2].[O-][Cl+3]([O-])([O-])[O-].c1cnc2c(c1)ccc1cccnc12` [Complex 4, [Cu(acac)(phen)(ClO4)]], for which the half-inhibitory concentration (IC50) in the data set on HeLa cells [1] (setting [10]) is above 100 µM; in the data set with HeLa cells [1] (setting [11]), 41 ± 3.8 µM; in the data set with A549 cells [7] (setting [13]), above 100 µM; with A549 cells [7] (setting [14]), 48.8 ± 4.2 µM.

With `COc1cc(C=CC(=O)C=C([O-])C=Cc2ccc(O)c(OC)c2)ccc1O.[Cu+2].[O-][Cl+3]([O-])([O-])[O-].c1cnc2c(c1)c1nccnc1c1cccnc12` [Complex 2, [Cu(Cur)(dpq)(ClO4)]], the IC50 is 61.9 ± 3.9 µM in the data set with HeLa cells [1] (setting [10]), 4.7 ± 0.8 µM with HeLa cells [1] (setting [11]), 65.6 ± 4.4 µM with A549 cells [7] (setting [13]) and 5.7 ± 0.7 µM with A549 cells [7] (setting [14]). The “PI (Phototoxic Index) HeLa” value with HeLa cells [1] is recorded as 13.2. Also, the “log Po/w” value in [5] was 0.345. The “PI (Phototoxic Index) A549” value with A549 cells [7] was determined as 11.5.

`CC(=O)C=C(C)[O-].[Cu+2].[O-][Cl+3]([O-])([O-])[O-].c1ccc2nc3c4cccnc4c4ncccc4c3nc2c1` [Complex 6]: the IC50 in the data set with HeLa cells [1] (setting [10]) is above 100 µM; in the data set on HeLa cells [1] (setting [11]), 36.9 ± 2.8 µM; in the data set on A549 cells [7] (setting [13]), above 100 µM; in the data set on A549 cells [7] (setting [14]) it was 39.8 ± 3.3 µM. Moreover, the “PI (Phototoxic Index) HeLa” value in the data set with HeLa cells [1] is above 2.7. The “PI (Phototoxic Index) A549” value in the data set with A549 cells [7] was above 2.5.

`COc1cc(/C=C/C(=O)C=C([O-])/C=C/c2ccc(O)c(OC)c2)ccc1O.[Cu+2].[O-][Cl+3]([O-])([O-])[O-].c1cnc2c(c1)ccc1cccnc12` [Complex 1, [Cu(Cur)(phen)(ClO4)]]: the IC50 in the data set with HeLa cells [1] (setting [10]) turned out to be 56.4 ± 3.5 µM; with HeLa cells [1] (setting [11]), 6.8 ± 0.9 µM; in the data set with A549 cells [7] (setting [13]), 85.3 ± 5.4 µM; with A549 cells [7] (setting [14]), 8.6 ± 0.8 µM. Moreover, in the data set on HeLa cells [1], the “PI (Phototoxic Index) HeLa” value stood at 8.3. Moreover, in the data set on HeLa cells [2] (visible light (400–700 nm, 10 J cm^−2) vs dark), the “induction of apoptosis (in words)” value is listed as “visible light assisted induction of apoptosis in HeLa cells, however not up to the extent of 3”. Also, the “log Po/w” value in [5] was −0.525. In the data set with A549 cells [7], the “PI (Phototoxic Index) A549” value is given as 9.9.

Consider `COc1cc(/C=C/C(=O)CC(=O)/C=C/c2ccc(O)c(OC)c2)ccc1O` [Curcumin, (1E,6E)-1,7-bis(4-hydroxy-3-methoxyphenyl)-1,6-heptadiene-3,5-dione], for which the IC50 in the data set on A549 cells [8] (read-out: IC50 A549 Dark) is 61.4 ± 0.4 µM; in the data set with A549 cells [8] (read-out: IC50 A549 Light) it was 19 ± 0.1 µM; in the data set with HeLa cells [9] (read-out: IC50 HeLa Dark), 85.4 ± 0.6 µM; with HeLa cells [9] (read-out: IC50 HeLa Light), 8.2 ± 0.2 µM.

Turning to `CC(=O)C=C(C)[O-].[Cu+2].[O-][Cl+3]([O-])([O-])[O-].c1cnc2c(c1)c1nccnc1c1cccnc12` [Complex 5, [Cu(acac)(dpq)(ClO4)]], the IC50 with HeLa cells [1] (setting [10]) was above 100 µM; with HeLa cells [1] (setting [11]), 46.8 ± 3.9 µM; in the data set with A549 cells [7] (setting [13]), above 100 µM; in the data set on A549 cells [7] (setting [14]), 45.1 ± 3.5 µM. The “PI (Phototoxic Index) HeLa” value with HeLa cells [1] is given as above 2.1. In addition, in data set [5], the “log Po/w” value is on record as −0.180. In addition, the “PI (Phototoxic Index) A549” value in the data set on A549 cells [7] is above 2.2.

By IC50 is commonly meant the concentration at which inhibition is half-maximal.
